Measurements: patent US8404687B2, “Disubstituted phthalazine hedgehog pathway antagonists” (Eli Lilly and Company, priority 2008, dated 2013)
Structures can show the parent of a compound that is named as a salt.

Molecular target: T1, CYP3A4 (Homo sapiens, UniProt P08684)
T1 construct: from tissue; host or cells: human liver microsomes
Experiment: CYP3A4 Inhibition Assay
Type: in vitro ADME
Settings: liver microsomes, pH 7.4, probe midazolam (5 μM; formation of 1-OH-midazolam), human liver microsomal preparation, 10 μM inhibitor, 5 μM midazolam substrate
Method: Incubation samples are prepared by adding a human liver microsomal preparation to the test inhibitor (final concentrations 0.05 mg/mL protein, 10 μM inhibitor in 100 mM NaPO4, pH 7.4 buffer) and mixed. Samples are pre-incubated for approximately five minutes at 37° C. Following the pre-incubation period, the reaction is initiated with the addition of a solution containing NADPH and midazolam, as the enzyme substrate, (final concentration 1 mM NADPH, 5 μM midazolam). After addition of the NADPH solution, the samples are incubated for 3 min at approximately 37° C. Following the incubation period, the reaction is quenched by the addition of 50 μL of methanol (and an internal standard for chromatography) and the samples are mixed well. After quenching the reaction, the mixture is centrifuged at approximately 4000 rpm for 15 min at approximately 5° C. and analyzed by LC/MS analysis.
Samples are analyzed using HPLC/MS with gradient elution on short conventional C18 columns, (Loading Mobile Phase—95/5 Milli-Q H2O/methanol (v/v) with 1% acetic acid. Mobile Phase B—80/20 Milli-Q H2O/methanol (v/v) with 1% acetic acid. Mobile Phase C—5/95 Milli-Q H2O/methanol (v/v) with 1% acetic acid. Rinsing Mobile Phase—75/25 Milli-Q H2O/acetonitrile (v/v).
The samples are injected into a Mass Spectral Analyzer for Selected Ion Monitoring (SIM) at a mass of 342.1 (1-OH-midazolam) and 346.1 (α-hydroxymidazolam-d4 internal standard) using Turbolon Spray under positive conditions. Data are reported as % inhibition of the formation of 1-OH-midazolam in the presence of an inhibitor concentration of 10 μM.

T1 sequence (P08684 whole entry): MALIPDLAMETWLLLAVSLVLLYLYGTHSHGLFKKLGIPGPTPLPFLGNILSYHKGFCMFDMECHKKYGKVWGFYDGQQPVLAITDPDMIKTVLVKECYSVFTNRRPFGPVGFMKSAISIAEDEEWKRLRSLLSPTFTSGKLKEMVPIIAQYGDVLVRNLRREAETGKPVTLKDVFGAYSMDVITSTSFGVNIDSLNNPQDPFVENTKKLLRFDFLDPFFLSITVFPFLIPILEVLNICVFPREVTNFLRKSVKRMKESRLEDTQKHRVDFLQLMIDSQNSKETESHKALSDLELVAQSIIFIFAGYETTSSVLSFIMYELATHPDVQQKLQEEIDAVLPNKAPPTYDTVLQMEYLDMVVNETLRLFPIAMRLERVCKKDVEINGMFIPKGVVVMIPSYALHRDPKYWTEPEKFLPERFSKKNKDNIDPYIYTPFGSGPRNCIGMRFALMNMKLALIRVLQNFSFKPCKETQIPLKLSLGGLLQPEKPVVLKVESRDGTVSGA

| inhibition at 3 min, 10 μM [%] | Structure (SMILES) |
| --- | --- |
| < 45 | CC[C@H]1CN(c2nnc(-c3ccc(F)cc3)c3ccccc23)CCN1C(=O)Nc1ccc(F)cc1C(F)(F)F [Example 87, (S)-2-Ethyl-N-(4-fluoro-2-(trifluoromethyl)phenyl)-4-(4-(4-fluorophenyl)phthalazin-1-yl)piperazine-1-carboxamide hydrochloride] |
| < 45 | C[C@H]1CN(C(=O)Nc2ccc(OC(F)(F)F)cc2)CCN1c1nnc(-c2ccc(F)cc2)c2ccccc12 [Example 48, (S)-4-(4-(4-Fluorophenyl)phthalazin-1-yl)-3-methyl-N-(4-(trifluoromethoxy)phenyl)piperazine-1-carboxamide hydrochloride] |
| < 45 | C[C@H]1CN(c2nnc(-c3ccc(F)cc3)c3ccccc23)CCN1C(=O)Nc1ccc(F)cc1C(F)(F)F [Example 18, (S)-N-(4-Fluoro-2-(trifluoromethyl)phenyl)-4-(4-(4-fluorophenyl)phthalazin-1-yl)-2-methylpiperazine-1-carboxamide hydrochloride] |
| < 45 | C[C@H]1CN(C(=O)Nc2ccc(F)cc2C(F)(F)F)CCN1c1nnc(-c2ccc(C#N)cc2)c2ccccc12 [Example 60, (S)-4-(4-(4-Cyanophenyl)phthalazin-1-yl)-N-(4-fluoro-2-(trifluoromethyl)phenyl)-3-methylpiperazine-1-carboxamide hydrochloride] |
| < 45 | C[C@H]1CN(c2nnc(-c3ccc(C(F)(F)F)cc3)c3ccccc23)CCN1C(=O)Nc1ccc(F)cc1F [Example 47, (S)-N-(2,4-Difluorophenyl)-2-methyl-4-(4-(4-(trifluoromethyl)phenyl)phthalazin-1-yl)piperazine-1-carboxamide hydrochloride] |
| < 45 | C[C@H]1CN(c2nnc(-c3ccc(C#N)cc3)c3ccccc23)CCN1C(=O)Nc1ccc(F)cc1F [Example 26, (S)-4-(4-(4-Cyanophenyl)phthalazin-1-yl)-N-(2,4-difluorophenyl)-2-methylpiperazine-1-carboxamide hydrochloride] |
| < 45 | CC[C@H]1CN(c2nnc(-c3ccc(F)cc3)c3ccccc23)CCN1C(=O)Nc1ccc(F)cc1 [Example 88, (S)-2-Ethyl-N-(4-fluorophenyl)-4-(4-(4-fluorophenyl)phthalazin-1-yl)piperazine-1-carboxamide hydrochloride] |
| < 45 | C[C@H]1CN(C(=O)Nc2ccc(F)cc2C(F)(F)F)CCN1c1nnc(-c2ccccc2)c2ccccc12 [Example 69, (S)-N-(4-Fluoro-2-(trifluoromethyl)phenyl)-3-methyl-4-(4-phenylphthalazin-1-yl)piperazine-1-carboxamide hydrochloride] |
| < 45 | CC[C@H]1CN(c2nnc(-c3ccc(F)cc3)c3ccccc23)CCN1C(=O)Nc1ccc(F)cc1F [Example 86, (S)-N-(2,4-Difluorophenyl)-2-ethyl-4-(4-(4-fluorophenyl)phthalazin-1-yl)piperazine-1-carboxamide hydrochloride] |
| < 45 | CC1CN(C(=O)Nc2ccc(OC(F)(F)F)cc2)CCN1c1nnc(-c2ccc(F)cc2)c2ccccc12 (racemic) [Example 6, (±)-4-(4-(4-Fluorophenyl)phthalazin-1-yl)-3-methyl-N-(4-(trifluoromethoxy)phenyl)piperazine-1-carboxamide hydrochloride] |
| < 45 | C[C@H]1CN(c2nnc(-c3ccc(C(F)(F)F)cc3)c3ccccc23)CCN1C(=O)Nc1ccc(F)cc1 [Example 45, (S)-N-(4-Fluorophenyl)-2-methyl-4-(4-(4-(trifluoromethyl)phenyl)phthalazin-1-yl)piperazine-1-carboxamide hydrochloride] |

Tested on: Gli1 transcript in Daoy cells stimulated with Shh conditioned media
Experiment: Functional assay for measuring the inhibition of Gli1 in Daoy cells (bDNA)
Type: cell-based
Settings: Homo sapiens; Daoy cells treated with Shh-CM, 24 hours incubation with compound, Gli1 transcript by bDNA luminescence
Method: Biological activity is determined using a functional assay in Daoy neuronal cancer cells and measures levels of Gli1 ribonucleic acid via a bDNA (branched deoxyribonucleic acid) assay system (Panomics, Inc., Fremont, Calif.). Gli was originally discovered in a Glioblastoma cell line and encodes a zinc finger protein that is activated by Shh signaling. The maximum response is obtained by inducing Gli1 transcription in the Daoy cells with conditioned medium (human embryonic kidney, HEK-293 cells stably expressing recombinant Shh) for 24 hours and then measuring the amount of stimulated Gli1 transcript. […]
The bDNA assay system utilizes the technology of branched-chain DNA to allow amplification of a target ribonucleic acid (transcript). […] The addition of a chemilumigenic substrate during the amplification step allows for detection using luminescence. […]
Daoy cells are grown to confluency in tissue culture T225-flasks in Daoy growth media containing Minimum Essential Medium (MEM) plus 10% Fetal Bovine Serum (FBS) with […] non-essential amino acids and 1 mM sodium pyruvate. The cells are removed from the T225-flasks using trypsin ethylenediaminetetraacetic acid (EDTA), centrifuged, resuspended in media, and then counted. […]

| IC50 [nM] | Structure (SMILES) |
| --- | --- |
| ~0.42 | C[C@H]1CN(C(=O)Nc2ccc(F)cc2)CCN1c1nnc(-c2ccc(F)cc2)c2ccccc12 [Example 2, (S)—N-(4-Fluorophenyl)-4-(4-(4-fluorophenyl)phthalazin-1-yl)-3-methylpiperazine-1-carboxamide hydrochloride] |
